Among the test systems are Bacillus subtilis DELTA; Candida parapsilosis; Escherichia coli ML-35; Bacillus megaterium Bm11; Candida albicans; Enterococcus faecium; Streptococcus agalactiae; Serratia marcescens; Staphylococcus aureus; Cryptococcus neoformans; Bacillus megaterium; Micrococcus luteus; Aureobasidium pullulans; Escherichia coli UB1005; Escherichia coli DC2; Bacillus subtilis C971.
What all share (assay): ≥ marks a high value that may be exact or a test limit, other limits are often not marked, values filed in µg/mL are converted to µM
Experiment [1] deals with Escherichia coli DH5alpha.
Experiment [2] has as its system Pseudomonas aeruginosa PAO1.
The subject of experiment [3] is Zymomonas mobilis ATCC 10988.
For experiment [4], the system named is Staphylococcus epidermidis ATCC 12228.
Experiment [5] relates to Serratia marcescens ATCC 8100.
Experiment [6] deals with Salmonella enterica subsp. enterica serovar Typhimurium ATCC 14028.
The subject of experiment [7] is Escherichia coli ATCC 25922.
Experiment [8] deals with Staphylococcus aureus ATCC 25923.
Experiment [9] deals with Escherichia coli O18:K1:H7 Bort.
Experiment [10] relates to Candida albicans ATCC 10231.
For experiment [11], the system named is Staphylococcus aureus ATCC 9144.
Experiment [12] deals with Bacillus subtilis ATCC 23857.
The subject of experiment [13] is Pseudomonas aeruginosa ATCC 27853.
Experiment [14] deals with Corynebacterium glutamicum ATCC 13032.
In experiment [15] the test system is Staphylococcus epidermidis C621.
For experiment [16], the system named is Staphylococcus aureus SAP 0017.
In experiment [17] the test system is Salmonella typhimurium C587.
The subject of experiment [18] is Corynebacterium xerosis C875.
Experiment [19] relates to Pseudomonas aeruginosa H187.
Experiment [20] has as its system Salmonella typhimurium C610.
Experiment [21] concerns Pseudomonas aeruginosa H188.
Experiment [22] concerns Enterococcus faecalis C625.
For experiment [23], the system named is Staphylococcus aureus MTCC 3160.
For experiment [24], the system named is Staphylococcus aureus ATCC BAA-1720.
The test system of experiment [25] is Pseudomonas aeruginosa MTCC 2295.
Experiment [26] has as its system Escherichia coli MTCC 723.
The subject of experiment [27] is Staphylococcus epidermidis ATCC 51625.
In experiment [28] the test system is Bacillus subtilis MTCC 2763.

Molecules are shown by their SMILES. ≈ marks a conversion by molar mass, not a printed value. Where “and” joins values, the source holds several entries; their conditions need not be identical. Equal entries are not always repeated.

The term MIC denotes the smallest concentration in the dilution series that meets the test's criterion for growth inhibition. A high value points to a less susceptible organism.

Consider `CC[C@H](C)[C@H](NC(=O)[C@H](CCCN=C(N)N)NC(=O)[C@H](CCC(N)=O)NC(=O)[C@@H](NC(=O)[C@@H](NC(=O)[C@H](CCCN=C(N)N)NC(=O)[C@H](CCCCN)NC(=O)[C@H](Cc1ccccc1)NC(C)=O)[C@@H](C)CC)C(C)C)C(=O)N[C@@H](CCCCN)C(=O)N[C@@H](CC(=O)O)C(=O)N[C@@H](CC(C)C)C(=O)N[C@@H](CC(C)C)C(=O)N[C@@H](CCCN=C(N)N)C(N)=O` [FKRIVQRIKDLLR], for which the MIC in [1] was ≥ 119 µM; with Bacillus subtilis DELTA, ≥ 119 µM; in experiment [2] it was 23.7 µM (≈ 41 µg/mL); against Candida parapsilosis, ≥ 119 µM; in experiment [3], 23.7 µM (≈ 41 µg/mL).
As for `CC[C@H](C)[C@H](NC(=O)[C@H](CCCCN)NC(=O)[C@H](CCCN=C(N)N)NC(=O)CNC(=O)[C@H](CC(C)C)NC(=O)[C@H](CO)NC(=O)[C@H](CCCN=C(N)N)NC(=O)[C@H](CC(C)C)NC(=O)CNC(=O)CN)C(=O)N[C@@H](CC(C)C)C(=O)N[C@@H](CCCN=C(N)N)C(=O)N[C@@H](C)C(=O)N[C@@H](Cc1c[nH]c2ccccc12)C(=O)N[C@@H](CCCCN)C(=O)N[C@@H](CCCCN)C(=O)N[C@@H](Cc1ccc(O)cc1)C(=O)NCC(=O)N1CCC[C@H]1C(=O)N[C@@H](CCC(N)=O)C(=O)N[C@@H](C)C(=O)N[C@H](C(=O)N1CCC[C@H]1C(=O)N[C@@H](C)C(=O)N[C@H](C(=O)N[C@@H](CCCN=C(N)N)C(=O)N[C@@H](CCC(N)=O)C(N)=O)[C@@H](C)O)[C@@H](C)O` [GGLRSLGRKILRAWKKYGPQATPATRQ], the MIC in experiment [4] worked out at 2 µM (≈ 6.02 µg/mL); in the experiment with Escherichia coli ML-35 it was 0.5 µM (≈ 1.5 µg/mL); in [5] it was 4 µM (≈ 12 µg/mL); with Bacillus megaterium Bm11, 2 µM (≈ 6.02 µg/mL); in the experiment on Candida albicans it was 8 µM (≈ 24.1 µg/mL); in experiment [6] it was 1 µM (≈ 3.01 µg/mL). The MIC with Enterococcus faecium amounted to 22.6 µM (≈ 68.1 µg/mL); in experiment [7], 1 µM (≈ 3.01 µg/mL); in the experiment with Streptococcus agalactiae, 1.41 µM (≈ 4.26 µg/mL); in experiment [8] it was 8 µM (≈ 24.1 µg/mL); in experiment [9], 2 µM (≈ 6.02 µg/mL); against Serratia marcescens it was 4 µM (≈ 12 µg/mL). Further, the MIC in the experiment on Staphylococcus aureus was > 64 µM and 32 µM; against Cryptococcus neoformans, 4 µM (≈ 12 µg/mL).
As for `C[C@H](NC(=O)[C@H](CCCN=C(N)N)NC(=O)[C@H](Cc1c[nH]c2ccccc12)NC(=O)[C@H](Cc1c[nH]c2ccccc12)NC(=O)[C@H](Cc1c[nH]c2ccccc12)NC(=O)[C@@H]1CCCN1C(=O)[C@H](CCCN=C(N)N)NC(=O)[C@H](CCCN=C(N)N)NC(=O)CN)C(=O)N[C@@H](CCCN=C(N)N)C(N)=O` [GRRPWWWRAR], the MIC was determined as 0.701 µM (≈ 0.999 µg/mL) against Bacillus megaterium; 2.73 µM (≈ 3.9 µg/mL) against Micrococcus luteus; 21.9 µM (≈ 31.3 µg/mL) in the experiment with Aureobasidium pullulans; 21.9 µM (≈ 31.3 µg/mL) in experiment [10]; 5.47 µM (≈ 7.79 µg/mL) in experiment [7]; 5.47 µM (≈ 7.79 µg/mL) in experiment [11]. For the same compound, the MIC in [12] amounted to 2.73 µM (≈ 3.9 µg/mL); in experiment [13], 21.9 µM (≈ 31.3 µg/mL); in [14], 1.4 µM (≈ 2 µg/mL).
Take `CC[C@H](C)[C@H](NC(=O)[C@H](C)NC(=O)[C@H](CCCCN)NC(=O)[C@H](CC(C)C)NC(=O)[C@H](C)NC(=O)[C@@H](NC(=O)[C@H](Cc1cnc[nH]1)NC(=O)[C@H](CC(C)C)NC(=O)[C@@H](NC(=O)[C@@H](NC(=O)[C@H](CCCCN)NC(=O)[C@@H](NC(=O)[C@H](C)NC(=O)CNC(=O)[C@H](CCCCN)NC(=O)[C@H](Cc1ccccc1)NC(=O)[C@@H](NC(=O)[C@H](CCCCN)NC(=O)[C@H](CC(C)C)NC(=O)[C@H](Cc1ccccc1)NC(=O)[C@H](CO)NC(=O)[C@H](CCCCN)NC(=O)[C@H](Cc1c[nH]c2ccccc12)NC(=O)[C@H](CCCCN)NC(C)=O)[C@@H](C)O)C(C)C)[C@@H](C)O)C(C)C)[C@@H](C)O)C(=O)N[C@@H](CO)C(=O)N[C@@H](CO)C(N)=O` [KWKSFLKTFKGAVKTVLHTALKAISS]: the MIC stood at 1.38 µM (≈ 4.06 µg/mL) in [15]; 1.73 µM (≈ 5.07 µg/mL) in experiment [16]; 4.39 µM (≈ 12.9 µg/mL) in experiment [17]; 0.692 µM (≈ 2.03 µg/mL) in experiment [18]; 1.73 µM (≈ 5.07 µg/mL) against Escherichia coli UB1005; 1.38 µM (≈ 4.06 µg/mL) in [19]. Besides, the MIC in experiment [20] came to 1.11 µM (≈ 3.25 µg/mL); against Escherichia coli DC2 it was 0.865 µM (≈ 2.54 µg/mL); in experiment [21] it was 3.49 µM (≈ 10.2 µg/mL); in experiment [8], 2.77 µM (≈ 8.11 µg/mL); in the experiment on Bacillus subtilis C971, 0.692 µM (≈ 2.03 µg/mL); in [22], 4.39 µM (≈ 12.9 µg/mL).
For `NC(=O)[C@H](CCCN=C(N)N)NC(=O)[C@H](Cc1c[nH]c2ccccc12)NC(=O)[C@H](Cc1c[nH]c2ccccc12)NC(=O)[C@H](CCCN=C(N)N)NC(=O)[C@@H](N)Cc1c[nH]c2ccccc12` [WRWWR], the minimal inhibitory concentration (MIC) in experiment [23] was 16.9 µM (≈ 15 µg/mL); in [24], 19.7 µM (≈ 17.5 µg/mL); in experiment [25] it was ≥ 78.7 µM; in [26] it was ≥ 45 µM; in [27], 22.5 µM (≈ 20 µg/mL); in [28] it was ≥ 56.2 µM.

For the origin of these results see DBAASP.
